The target in test [1] is T1, Sentrin-specific protease 8 (Homo sapiens, UniProt Q96LD8).
T1 sequence (Q96LD8 whole entry): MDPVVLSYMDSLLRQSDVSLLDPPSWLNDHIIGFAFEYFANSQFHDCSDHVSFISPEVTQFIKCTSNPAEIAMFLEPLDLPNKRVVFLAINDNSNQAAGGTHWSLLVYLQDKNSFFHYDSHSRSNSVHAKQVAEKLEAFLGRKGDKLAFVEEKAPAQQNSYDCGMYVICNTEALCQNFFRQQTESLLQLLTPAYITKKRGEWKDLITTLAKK
Type of test: functional.

In test [2] the target is T2, Mannose-6-phosphate isomerase (Homo sapiens, UniProt P34949).
T2 sequence (P34949 whole entry): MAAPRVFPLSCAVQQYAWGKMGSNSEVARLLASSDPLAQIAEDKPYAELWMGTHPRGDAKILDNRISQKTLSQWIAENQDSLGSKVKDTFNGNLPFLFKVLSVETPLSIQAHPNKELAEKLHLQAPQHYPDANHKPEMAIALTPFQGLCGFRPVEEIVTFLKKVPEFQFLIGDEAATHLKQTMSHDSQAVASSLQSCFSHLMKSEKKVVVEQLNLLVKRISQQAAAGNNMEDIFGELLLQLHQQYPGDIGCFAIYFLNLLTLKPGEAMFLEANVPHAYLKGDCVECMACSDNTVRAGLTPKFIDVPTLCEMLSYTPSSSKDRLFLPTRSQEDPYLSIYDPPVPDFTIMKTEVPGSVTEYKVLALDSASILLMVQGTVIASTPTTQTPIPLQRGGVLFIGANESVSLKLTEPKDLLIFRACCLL
Nature of the test: human PMI inhibitors, high substrate, primary screen, biochemical, fluorescence intensity, high mannose 6-phosphate (AID 1220).

Test [3] deals with T1, Sentrin-specific protease 8. The class given is functional. The source holds these as a separate data set.
The subject of another test is Vero. The experiment in a line: Vero cell toxicity, dose response, cytotoxicity control, plate reader, cherry-pick samples (AID 687020). Type of test: functional, cell-based. Conditions: Chlorocebus sabaeus.
In another test the test system is P388. Nature of the test: cells. The class given is functional. The following applies: Mus musculus.
Another test has as its system SN12K1. The experiment in a line: cells. Type of test: functional. The following applies: Homo sapiens.
A further test concerns P388/ADR. The experiment in a line: cells. Type of test: functional. Conditions: Mus musculus.
In test [4] the target is T3, Aryl hydrocarbon receptor (Homo sapiens, UniProt P35869).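 Further: confirmatory quantitative high-throughput screen measuring activation of the AhR signaling pathway.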
T3 sequence (P35869 whole entry): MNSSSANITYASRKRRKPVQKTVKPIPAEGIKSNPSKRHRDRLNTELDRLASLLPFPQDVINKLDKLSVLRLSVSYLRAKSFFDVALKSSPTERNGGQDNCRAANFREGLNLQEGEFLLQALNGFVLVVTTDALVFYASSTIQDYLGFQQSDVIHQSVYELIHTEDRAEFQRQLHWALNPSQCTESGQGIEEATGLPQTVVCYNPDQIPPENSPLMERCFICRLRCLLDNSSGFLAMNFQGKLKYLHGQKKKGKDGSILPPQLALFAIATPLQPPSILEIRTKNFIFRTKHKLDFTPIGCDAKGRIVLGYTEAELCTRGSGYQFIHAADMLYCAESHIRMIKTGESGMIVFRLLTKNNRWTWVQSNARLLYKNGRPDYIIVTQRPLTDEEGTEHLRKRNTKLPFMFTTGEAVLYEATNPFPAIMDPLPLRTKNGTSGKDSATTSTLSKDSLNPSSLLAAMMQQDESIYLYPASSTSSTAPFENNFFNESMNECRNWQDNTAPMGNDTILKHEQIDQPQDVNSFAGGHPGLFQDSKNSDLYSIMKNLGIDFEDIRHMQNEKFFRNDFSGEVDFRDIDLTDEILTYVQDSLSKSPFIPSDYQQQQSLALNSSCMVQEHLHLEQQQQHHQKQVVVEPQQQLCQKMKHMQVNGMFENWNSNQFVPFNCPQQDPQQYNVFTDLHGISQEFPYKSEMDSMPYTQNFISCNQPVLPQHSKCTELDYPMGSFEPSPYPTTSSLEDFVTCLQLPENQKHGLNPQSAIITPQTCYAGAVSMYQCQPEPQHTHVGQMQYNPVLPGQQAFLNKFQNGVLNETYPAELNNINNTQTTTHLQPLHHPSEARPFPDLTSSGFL
Conditions: Potency.

For test [5], the target named is T4, Rac GTPase-activating protein 1 (Homo sapiens, UniProt Q9H0H5).
T4 sequence (Q9H0H5 whole entry): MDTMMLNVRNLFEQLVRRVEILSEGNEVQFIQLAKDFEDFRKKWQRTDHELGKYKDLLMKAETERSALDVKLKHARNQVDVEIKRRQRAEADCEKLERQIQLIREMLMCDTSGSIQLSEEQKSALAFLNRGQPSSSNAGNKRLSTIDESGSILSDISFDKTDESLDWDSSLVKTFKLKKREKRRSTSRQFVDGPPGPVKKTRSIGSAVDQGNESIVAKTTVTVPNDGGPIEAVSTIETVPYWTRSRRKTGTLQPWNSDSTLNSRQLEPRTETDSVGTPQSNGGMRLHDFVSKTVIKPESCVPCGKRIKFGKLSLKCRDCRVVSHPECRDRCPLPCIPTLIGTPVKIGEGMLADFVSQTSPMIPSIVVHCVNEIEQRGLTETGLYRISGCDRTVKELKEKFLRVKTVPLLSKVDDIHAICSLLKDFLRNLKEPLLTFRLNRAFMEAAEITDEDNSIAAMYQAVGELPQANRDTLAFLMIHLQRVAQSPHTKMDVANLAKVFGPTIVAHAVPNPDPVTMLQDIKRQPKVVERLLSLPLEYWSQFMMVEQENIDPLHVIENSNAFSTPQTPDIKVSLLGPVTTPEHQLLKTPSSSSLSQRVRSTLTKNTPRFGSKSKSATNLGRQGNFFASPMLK
The experiment in a line: MgcRacGAP GTPase-activating activity inhibitors, confirmation, biochemical, ADP Hunter fluorescence, primary and confirmatory (AID 624330). The class given is functional.

Test [6] concerns the target T5, Small ubiquitin-related modifier 1 (Homo sapiens, UniProt P63165). Nature of the test: inhibitors of SUMO1 partner interactions, dose response, biochemical, FRET (AID 624383). Type of test: functional. Conditions: read-out: IC50_Mean.
In test [7] the target is T5, Small ubiquitin-related modifier 1. Nature of the test: inhibitors of SUMO1 peptide binding, dose response, biochemical, fluorescence polarization, uHTS hits (AID 624382). The class given is functional. Conditions: read-out: IC50_Mean.
Test [8] concerns the target Beta-lactamase (Pseudomonas aeruginosa, UniProt Q79MP6).
Test [9] deals with Beta-lactamase (Salmonella choleraesuis (strain SC-B67), UniProt Q5J463).
Test [10] concerns the target T6, Sentrin-specific protease 1 (Homo sapiens, UniProt Q9P0U3). The experiment in a line: potency of human SENP1 inhibitors, dose response, biochemical, kinetic FRET (AID 651697). Type of test: functional. The following applies: read-out: IC50_Mean.
Test [11] deals with T6, Sentrin-specific protease 1. Nature of the test: Dose response confirmation of small molecule inhibitors of the catalytic domain of the SUMO protease, SENP1 in a FRET assay. The class given is functional. The following applies: read-out: IC50_Mean.
Test [12] addresses T7, Fatty acid synthase (Homo sapiens, UniProt P49327). The experiment in a line: FAS thioesterase domain inhibitors, dose response, biochemical, endpoint fluorescence intensity, uHTS hits (AID 624327).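 Further: fluorescence from hydrolysis of an O-methyl fluorescein acyl ester substrate by the enzyme.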 Type of test: functional.
For test [13], the target named is T7, Fatty acid synthase. Nature of the test: FAS thioesterase domain inhibitors, dose response, biochemical, kinetic fluorescence intensity (AID 624326).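 Further: rate of fluorescence rise from hydrolysis of a fluorogenic O-methyl fluorescein ester substrate.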 The class given is functional.
Test [14] is described as follows: Artemis endonuclease inhibitor potency, dose response, biochemical, fluorescence intensity (AID 720701).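 Further: Artemis endonuclease enzyme.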 Type of test: functional.
Test [15] in a line: AlphaScreen signal interference compounds, dose response, artefact control for ARNT-TACC3 interaction inhibitor project, biochemical, luminescence, cherry-pick (AID 651705).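 Further: AlphaScreen bead proximity signal that flags compounds interfering with the detection technology; potency reflects signal decrease which marks the compound as an assay artifact.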 The class given is functional.
The target of test [16] is ADP-ribosylation factor GTPase-activating protein 1 (Rattus norvegicus, UniProt Q62848). The experiment in a line: Fluorescence polarization-based biochemical high throughput dose response screening assay to identify inhibitors of ADP-ribosylation factor GTPase activating protein 1 (ARFGAP1). Type of test: functional.
In another test the target is Ion channel NompC (Danio rerio, UniProt Q7T1G6). The experiment in a line: Fluorescence counterscreen assay for TRPML3 agonists: dose response cell-based high-throughput screening assay to identify agonists of the transient receptor potential channel N1 (TRPN1). [Related pubchem assays: 1526, 1424, 1448 ]. The class given is functional.
Test [17] has as its target T8, Low molecular weight phosphotyrosine protein phosphatase (Homo sapiens, UniProt P24666).
T8 sequence (P24666 whole entry): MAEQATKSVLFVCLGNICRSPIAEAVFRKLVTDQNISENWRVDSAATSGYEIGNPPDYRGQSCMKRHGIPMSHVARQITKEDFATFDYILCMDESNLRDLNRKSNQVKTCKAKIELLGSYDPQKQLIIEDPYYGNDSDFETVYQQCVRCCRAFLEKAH
Type of test: functional. Conditions: read-out: IC50_Mean.

Test [18] deals with T9, Heat shock factor protein 1 (Mus musculus, UniProt P38532).
T9 sequence (P38532 whole entry): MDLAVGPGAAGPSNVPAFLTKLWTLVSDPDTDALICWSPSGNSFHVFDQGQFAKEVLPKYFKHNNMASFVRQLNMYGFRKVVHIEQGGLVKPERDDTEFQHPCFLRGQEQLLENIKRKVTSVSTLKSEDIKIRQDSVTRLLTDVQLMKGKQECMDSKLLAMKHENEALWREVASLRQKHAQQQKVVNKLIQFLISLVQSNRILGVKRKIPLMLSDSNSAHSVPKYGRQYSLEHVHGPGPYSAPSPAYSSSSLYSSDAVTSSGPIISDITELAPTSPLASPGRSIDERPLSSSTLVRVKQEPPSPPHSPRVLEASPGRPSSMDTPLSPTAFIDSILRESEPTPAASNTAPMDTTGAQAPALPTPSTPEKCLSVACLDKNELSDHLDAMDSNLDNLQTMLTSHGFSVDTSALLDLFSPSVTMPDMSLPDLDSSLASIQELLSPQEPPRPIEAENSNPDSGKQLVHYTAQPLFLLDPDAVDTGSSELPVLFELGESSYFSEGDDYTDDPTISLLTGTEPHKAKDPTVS
The experiment in a line: HSF1 potentiators in luciferase reporter cells, confirmation, cell-based, NIH3T3, luminescence, dose retest (AID 435004).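 Further: stress induced by proteasome inhibitor MG132 added 30 min after compound; luciferase reporter driven by HSF1 response element in NIH3T3 cells; actives raise luminescence as potentiators of the MG132 stress response.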 Type of test: functional.

Test [19] deals with T8, Low molecular weight phosphotyrosine protein phosphatase. The class given is functional. Conditions: read-out: IC50_Mean. The source holds these as a separate data set.
The target of another test is Mucolipin-3 (Homo sapiens, UniProt Q8TDD5). The experiment in a line: Dose response cell-based high-throughput screening assay for agonists of the transient receptor potential channel ML3 (TRPML3). [Related pubchem assays: 1526, 1424, 1448 ]. The class given is functional.
A further test addresses Mu-type opioid receptor (Homo sapiens, UniProt P35372). Type of test: functional, cell-based.
Test [20] has as its target 5-hydroxytryptamine receptor 2A (Mus musculus, UniProt P35363). Type of test: functional, cell-based.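 Further: CHO-K1 cells with tagged receptor and beta-arrestin; agonist potency measured as compound-induced activation of the receptor.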
Test [21] has as its target Hepatocyte nuclear factor 4-alpha (Homo sapiens, UniProt P41235). Type of test: functional, cell-based.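 Further: biochemical luminescence-based dose-response counterscreen measuring inhibition of HNF4 dimerization, run alongside a screen for blockers of ABHD5–perilipin-5 interaction; split luciferase complementation of HNF4 fusion proteins in cell lysate measuring dimerization.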

Each structure is given as a SMILES string. The source made the active and inactive calls. Some results are limits rather than exact numbers.

T7 sequence (P49327 whole entry, the tested form may be a part): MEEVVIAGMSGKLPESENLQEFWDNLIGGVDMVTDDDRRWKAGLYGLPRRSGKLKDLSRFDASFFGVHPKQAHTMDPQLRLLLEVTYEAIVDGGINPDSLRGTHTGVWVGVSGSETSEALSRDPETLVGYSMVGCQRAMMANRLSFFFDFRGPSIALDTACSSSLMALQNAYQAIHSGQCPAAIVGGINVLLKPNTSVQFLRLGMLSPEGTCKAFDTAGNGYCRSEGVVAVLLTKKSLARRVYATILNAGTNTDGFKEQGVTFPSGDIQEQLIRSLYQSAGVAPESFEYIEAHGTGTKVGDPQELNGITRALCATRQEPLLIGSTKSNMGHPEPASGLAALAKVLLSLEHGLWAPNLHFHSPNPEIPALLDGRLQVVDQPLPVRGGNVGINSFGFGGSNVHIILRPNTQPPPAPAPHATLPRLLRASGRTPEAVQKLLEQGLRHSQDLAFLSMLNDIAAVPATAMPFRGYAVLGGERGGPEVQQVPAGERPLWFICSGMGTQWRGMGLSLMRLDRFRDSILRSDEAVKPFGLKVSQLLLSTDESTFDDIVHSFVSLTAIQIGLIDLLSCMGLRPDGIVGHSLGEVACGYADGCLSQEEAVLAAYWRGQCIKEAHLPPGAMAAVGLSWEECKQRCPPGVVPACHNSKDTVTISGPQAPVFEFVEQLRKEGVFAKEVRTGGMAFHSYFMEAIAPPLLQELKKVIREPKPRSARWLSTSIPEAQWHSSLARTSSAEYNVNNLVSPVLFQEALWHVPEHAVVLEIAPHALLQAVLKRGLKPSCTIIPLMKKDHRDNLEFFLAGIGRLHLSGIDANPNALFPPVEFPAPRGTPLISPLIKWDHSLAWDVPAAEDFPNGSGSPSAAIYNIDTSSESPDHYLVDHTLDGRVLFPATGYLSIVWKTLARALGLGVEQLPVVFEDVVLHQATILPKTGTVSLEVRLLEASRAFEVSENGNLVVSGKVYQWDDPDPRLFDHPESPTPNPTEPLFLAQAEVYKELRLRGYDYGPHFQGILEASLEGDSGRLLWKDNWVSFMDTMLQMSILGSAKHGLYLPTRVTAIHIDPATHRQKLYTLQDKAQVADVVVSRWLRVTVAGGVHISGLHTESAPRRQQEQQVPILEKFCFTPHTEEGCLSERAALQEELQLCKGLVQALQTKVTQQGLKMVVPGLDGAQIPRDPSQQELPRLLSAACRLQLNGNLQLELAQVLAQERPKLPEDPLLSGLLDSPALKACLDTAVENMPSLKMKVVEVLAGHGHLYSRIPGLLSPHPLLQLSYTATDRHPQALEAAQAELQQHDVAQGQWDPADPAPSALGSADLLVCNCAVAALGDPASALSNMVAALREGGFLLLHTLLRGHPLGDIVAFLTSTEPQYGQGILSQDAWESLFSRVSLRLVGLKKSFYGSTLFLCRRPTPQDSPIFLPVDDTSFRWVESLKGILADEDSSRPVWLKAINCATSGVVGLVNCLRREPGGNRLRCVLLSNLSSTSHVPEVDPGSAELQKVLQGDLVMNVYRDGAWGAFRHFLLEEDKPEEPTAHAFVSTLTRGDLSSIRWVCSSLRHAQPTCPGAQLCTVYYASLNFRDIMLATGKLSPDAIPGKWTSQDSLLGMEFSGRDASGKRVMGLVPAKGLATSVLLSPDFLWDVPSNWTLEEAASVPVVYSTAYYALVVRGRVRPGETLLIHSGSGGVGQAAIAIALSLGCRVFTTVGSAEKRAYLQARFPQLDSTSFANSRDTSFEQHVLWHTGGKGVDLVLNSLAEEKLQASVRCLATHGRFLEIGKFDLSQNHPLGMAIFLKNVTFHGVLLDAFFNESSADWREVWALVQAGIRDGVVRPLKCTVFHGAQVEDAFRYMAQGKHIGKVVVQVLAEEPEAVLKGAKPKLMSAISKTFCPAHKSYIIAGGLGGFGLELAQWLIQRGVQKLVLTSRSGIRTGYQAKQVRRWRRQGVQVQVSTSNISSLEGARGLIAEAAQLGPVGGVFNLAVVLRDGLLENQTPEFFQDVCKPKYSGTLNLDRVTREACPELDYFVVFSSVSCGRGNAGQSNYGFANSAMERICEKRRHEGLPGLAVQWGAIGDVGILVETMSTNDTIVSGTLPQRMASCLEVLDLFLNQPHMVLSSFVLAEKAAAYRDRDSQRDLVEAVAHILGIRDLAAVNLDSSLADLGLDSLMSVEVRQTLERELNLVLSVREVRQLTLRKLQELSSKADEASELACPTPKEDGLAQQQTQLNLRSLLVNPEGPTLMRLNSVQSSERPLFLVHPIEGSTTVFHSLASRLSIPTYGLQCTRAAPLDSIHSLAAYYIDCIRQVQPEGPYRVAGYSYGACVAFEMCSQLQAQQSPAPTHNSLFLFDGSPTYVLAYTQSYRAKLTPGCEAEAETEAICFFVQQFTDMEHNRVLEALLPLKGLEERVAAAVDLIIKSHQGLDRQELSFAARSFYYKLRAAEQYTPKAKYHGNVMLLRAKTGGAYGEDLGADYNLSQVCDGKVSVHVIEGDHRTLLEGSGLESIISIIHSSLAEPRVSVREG
T6 sequence (Q9P0U3 whole entry, the tested form may be a part): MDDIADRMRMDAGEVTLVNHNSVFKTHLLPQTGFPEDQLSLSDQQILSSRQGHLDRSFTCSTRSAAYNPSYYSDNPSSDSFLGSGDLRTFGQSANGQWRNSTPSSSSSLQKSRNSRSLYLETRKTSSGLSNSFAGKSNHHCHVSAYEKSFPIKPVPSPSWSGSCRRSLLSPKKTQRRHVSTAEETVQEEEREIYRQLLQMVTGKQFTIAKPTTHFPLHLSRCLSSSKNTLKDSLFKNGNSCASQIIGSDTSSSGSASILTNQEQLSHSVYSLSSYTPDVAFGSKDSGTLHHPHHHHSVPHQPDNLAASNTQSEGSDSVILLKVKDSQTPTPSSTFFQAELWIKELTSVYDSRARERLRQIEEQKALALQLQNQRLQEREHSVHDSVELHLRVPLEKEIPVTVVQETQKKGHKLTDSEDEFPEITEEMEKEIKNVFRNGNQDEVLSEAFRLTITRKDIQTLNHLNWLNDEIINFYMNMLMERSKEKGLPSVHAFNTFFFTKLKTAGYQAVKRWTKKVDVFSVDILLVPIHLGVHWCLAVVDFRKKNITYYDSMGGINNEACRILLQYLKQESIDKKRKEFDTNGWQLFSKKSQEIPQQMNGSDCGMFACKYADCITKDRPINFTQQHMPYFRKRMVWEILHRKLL
T5 sequence (P63165 whole entry): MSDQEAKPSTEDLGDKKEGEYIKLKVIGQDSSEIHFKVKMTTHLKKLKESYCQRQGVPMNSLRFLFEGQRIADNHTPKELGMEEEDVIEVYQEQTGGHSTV
Sequence of 5-hydroxytryptamine receptor 2A (P35363 whole entry, the tested form may be a part): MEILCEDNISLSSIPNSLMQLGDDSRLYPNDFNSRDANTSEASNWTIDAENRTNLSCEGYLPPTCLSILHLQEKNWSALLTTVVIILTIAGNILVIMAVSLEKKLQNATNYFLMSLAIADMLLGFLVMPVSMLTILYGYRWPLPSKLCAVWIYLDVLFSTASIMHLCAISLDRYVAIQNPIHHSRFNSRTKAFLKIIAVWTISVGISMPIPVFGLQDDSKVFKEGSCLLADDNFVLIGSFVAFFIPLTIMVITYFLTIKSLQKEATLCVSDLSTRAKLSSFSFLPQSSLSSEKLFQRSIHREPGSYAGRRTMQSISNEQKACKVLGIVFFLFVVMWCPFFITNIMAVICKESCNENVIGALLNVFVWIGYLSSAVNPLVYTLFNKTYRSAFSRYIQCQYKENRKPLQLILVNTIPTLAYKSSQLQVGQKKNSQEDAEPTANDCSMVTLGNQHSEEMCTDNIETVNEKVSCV
Sequence of Mu-type opioid receptor (P35372 whole entry): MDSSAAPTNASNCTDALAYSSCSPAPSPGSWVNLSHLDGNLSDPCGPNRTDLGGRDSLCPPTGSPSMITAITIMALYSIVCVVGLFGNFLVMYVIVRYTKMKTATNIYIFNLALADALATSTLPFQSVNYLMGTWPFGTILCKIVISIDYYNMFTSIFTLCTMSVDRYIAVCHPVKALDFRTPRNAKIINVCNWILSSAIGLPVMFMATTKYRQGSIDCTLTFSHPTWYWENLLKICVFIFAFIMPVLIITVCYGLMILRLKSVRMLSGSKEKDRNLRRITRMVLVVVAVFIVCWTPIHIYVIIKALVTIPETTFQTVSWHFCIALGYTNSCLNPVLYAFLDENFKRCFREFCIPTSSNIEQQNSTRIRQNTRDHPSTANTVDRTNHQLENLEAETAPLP
Sequence of ADP-ribosylation factor GTPase-activating protein 1 (Q62848 whole entry): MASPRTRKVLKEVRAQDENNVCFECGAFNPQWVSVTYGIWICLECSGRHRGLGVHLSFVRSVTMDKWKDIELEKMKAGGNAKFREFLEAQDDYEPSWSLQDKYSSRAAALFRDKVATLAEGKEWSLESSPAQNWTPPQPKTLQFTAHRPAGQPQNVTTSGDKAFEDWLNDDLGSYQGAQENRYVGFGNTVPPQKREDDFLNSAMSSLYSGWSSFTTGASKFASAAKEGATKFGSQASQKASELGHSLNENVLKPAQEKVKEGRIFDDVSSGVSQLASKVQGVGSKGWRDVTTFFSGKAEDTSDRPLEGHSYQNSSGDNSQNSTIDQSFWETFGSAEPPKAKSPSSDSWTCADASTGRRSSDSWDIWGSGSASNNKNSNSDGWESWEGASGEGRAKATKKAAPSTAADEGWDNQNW
Sequence of Beta-lactamase (Salmonella choleraesuis (strain SC-B67), UniProt Q5J463) (Q5J463 whole entry): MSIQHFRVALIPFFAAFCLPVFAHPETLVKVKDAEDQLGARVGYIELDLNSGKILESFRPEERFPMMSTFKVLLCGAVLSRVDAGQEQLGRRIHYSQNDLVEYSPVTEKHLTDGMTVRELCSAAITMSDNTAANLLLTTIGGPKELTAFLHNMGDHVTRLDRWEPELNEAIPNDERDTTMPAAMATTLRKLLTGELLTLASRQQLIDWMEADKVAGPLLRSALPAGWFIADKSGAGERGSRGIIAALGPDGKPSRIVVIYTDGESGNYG

As to `CC(C)(C)c1cc(=O)n(-c2ccccc2)[nH]1`, the figures for the IC50 in [1], in [2] and in test [3] were 7.95 µM (active), > 50 µM (not active) and 19.1 µM (active), respectively.

Consider `CC(C)(CN1CCN(Cc2ccccc2)CC1)NS(=O)(=O)c1ccc(Cl)cc1`, for which the AC50 in the test on Vero is 33.7 µM (active).

Turning to `O=c1oc2cc(O)ccc2c2oc3cc(O)ccc3c12` [COUMESTROL], the GI50 with P388 was 27.4 µM (inactive); in the test with SN12K1, 50 µM (inactive); in the test on P388/ADR it was 26.2 µM (inactive). For the same molecule, the AC50 in [4] was 50.1 µM (inconclusive). Moreover, the IC50 in test [5] is 32.3 µM (active); in test [6], 14.7 µM (active); in [7] it was > 66.6 µM (inactive).

`N#CC(C#N)=C1C=C2C=C(N3CCCCC3)CCC2CC1` (stereo not drawn): the figures for the IC50 on Beta-lactamase [8] and on Beta-lactamase [9] were 2.51 µM (active) and 1.23 µM (active), respectively.

`Cc1coc(NC(=O)CSc2nc(-c3ccncc3)cc(C(F)(F)F)c2C#N)n1`: the IC50 in test [10] is 35.9 µM (inactive); in test [11], 25.4 µM (inactive); at Fatty acid synthase [12], 18.5 µM (active); on Fatty acid synthase [13] it was 14.8 µM (active).

For `C/C(CC(=O)Nc1ccc(N(C)C)cc1)=N\NC(=O)c1ccccn1`, the IC50 in [14] was > 20 µM (inactive). Moreover, the AC50 in test [15] is 78 µM (active).

Take `Cc1cc([N+](=O)[O-])c(C)cc1-c1ccc(/C=N/NC(=O)Cn2nnnc2N)o1`: the IC50 in test [16] was 17.8 µM (inactive).

In the case of `O=C(O)c1csc(N/N=C/c2ccc(Br)cc2)n1`, the EC50 is > 29.9 µM (not active) at Ion channel NompC, > 260 µM (inactive) in test [18] and > 29.9 µM (not active) at Mucolipin-3. Besides, the IC50 in test [17] is > 80 µM (inactive); in test [19] it was 47.3 µM (inactive).

Consider `Cc1ccc2c(C)c(C(=O)Nc3c(C)n(C)n(-c4ccccc4)c3=O)oc2c1C`, for which the EC50 on Mu-type opioid receptor was 92.5 µM (inactive); in test [20], 18.9 µM (inactive).

As for `O=C(NCc1ccccc1)C(C1CC1)n1c(=O)c(-c2ccco2)nc2ccccc21` (stereo not drawn), the IC50 in test [21] is 6.09 µM (active).

(Values after ChEMBL document CHEMBL1201862, “PubChem BioAssay data set” (2004).)
